Measurements from patent publication US4772589A, “Etoposide solution in NMP” (Bristol-Myers, priority 1986, dated 1988).
In brackets after ≈: the same amount, converted by molar mass.

Legend:
[1] = Etoposide solubility in various solvents; assay type: physicochemical
Excerpt: The high etoposide concentration achievable renders the solution useful as gelatin capsule fill. Table III compares the solubility of etoposide in various solvents.

[2] = oral gelatin capsule vs IV; cited from earlier work
[3] = Crystallization on dilution with water or parenteral vehicle
[4] = water, ethanol, ether, chloroform, benzene, ethyl acetate, and carbon disulfide; cited from earlier work

Structure (SMILES) | solubility ([1]; 1-methyl-2-pyrrolidinone, organic solvent or mixture, solvent: 1-Methyl-2-pyrrolidinone) | solubility ([1]; benzyl alcohol, organic solvent or mixture, solvent: Benzyl Alcohol) | solubility ([1]; dimethylisosorbide, organic solvent or mixture, solvent: Dimethylisosorbide) | solubility ([1]; ethanol, organic solvent or mixture, solvent: Ethanol) | solubility ([1]; propylene glycol, organic solvent or mixture, solvent: Propylene Glycol) | solubility ([1]; water, solvent: Water) | Gelatin capsule dose relative to IV dose for equivalent blood level [2] | Crystallization on dilution with water ([3]; solution in 1-ethyl-2-pyrrolidinone, diluted with water to 0.5-5 mg/ml) | Crystallization on dilution with water ([3]; solution in 2-pyrrolidinone, diluted with water to 0.5-5 mg/ml) | Crystallization on dilution with water ([3]; solution in dimethylacetamide, diluted with water to 0.5-5 mg/ml) | Crystallization on dilution with water ([3]; solution in dimethylformamide, diluted with water to 0.5-5 mg/ml) | Crystallization on dilution with water ([3]; solution in dimethylisosorbide, diluted with water to 0.5-5 mg/ml) | Crystallization on dilution with water ([3]; solution in ethanol, diluted with water to 0.5-5 mg/ml) | Crystallization on dilution with water ([3]; solution in polyethylene glycol-300, diluted with water to 0.5-5 mg/ml) | Crystallization on dilution with water ([3]; solution in propylene glycol, diluted with water to 0.5-5 mg/ml) | Miscibility [4]
COc1cc([C@@H]2c3cc4c(cc3[C@@H](O[C@@H]3O[C@@H]5CO[C@@H](C)O[C@H]5[C@H](O)[C@H]3O)[C@H]3COC(=O)[C@H]23)OCO4)cc(OC)c1O [etoposide, 4'-demethylepipodophyllotoxin-9-(4,6-O(R)-ethylidine-β-D-glucopyranoside)] | > 500 mg/mL | 104 mg/mL (≈ 177 mM) | 320 mg/mL (≈ 544 mM) | < 1 mg/mL | 11 mg/mL (≈ 18.7 mM) | 0.1 mg/mL (≈ 0.17 mM) | twice as high | rapid deposit of etoposide crystals | rapid deposit of etoposide crystals | rapid deposit of etoposide crystals | rapid deposit of etoposide crystals | rapid deposit of etoposide crystals | rapid deposit of etoposide crystals | rapid deposit of etoposide crystals | rapid deposit of etoposide crystals | 
CN1CCCC1=O [1-Methyl-2-pyrrolidinone, 1-methyl-2-pyrrolidinone] |  |  |  |  |  |  |  |  |  |  |  |  |  |  |  | miscible
